Patent US10052320B2, “Substituted quinoxalines as FGFR kinase inhibitors” (ASTEX THERAPEUTICS LIMITED, priority 2011, dated 2018)
Structures can show the parent of a compound that is named as a salt.

melting point	SMILES
174 °C	COc1cc(OC)cc(N(CCNC(C)C)c2ccc3ncc(-c4cccnc4)nc3c2)c1 (as salt: HCl) (hydrate or solvate) [Compound 10]
105 °C	COc1cc(OC)cc(N(CC2CC2)c2ccc3ncc(-c4ccc5c(ccn5C)c4)nc3c2)c1 (as salt: HCl) (hydrate or solvate) [Compound 20]
193 °C	COc1cc(OC)cc(N(CCNC(C)C)c2ccc3ncc(N4CCC(CN)CC4)nc3c2)c1 (as salt: HCl) (hydrate or solvate) [Compound 67]
150 °C	COc1cc(OC)cc(N(CCNC(C)C)c2ccc3ncc(-n4cnc(CO)c4)nc3c2)c1 (as salt: HCl) (hydrate or solvate) [Compound 77]
149 °C	COc1cc(OC)cc(N(CCNC(C)C)c2ccc3ncc(-c4ccccc4)nc3c2)c1 (as salt: HCl) (hydrate or solvate) [Compound 121]
188 °C	COc1cc(OC)cc(N(CCNC(C)C)c2ccc3ncc(-c4ccnc(C(=O)NCCCN)c4)nc3c2)c1 (as salt: HCl) (hydrate or solvate) [Compound 146]
138 °C	COc1cc(OC)cc(N(CCCNCC(F)(F)F)c2ccc3ncc(C(=O)NCCN4CCOCC4)nc3c2)c1 (as salt: HCl) (hydrate or solvate) [Compound 158]
176 °C	COc1cc(OC)cc(N(CCNC(C)C)c2ccc3ncc(C(=O)NCCCN4CCN(C)CC4)nc3c2)c1 (as salt: HCl) (hydrate or solvate) [Compound 159]
149 °C	COc1cc(OC)cc(N(CCNC(C)C)c2ccc3ncc(C(=O)NCCN4CCOCC4)nc3c2)c1 (as salt: HCl) (hydrate or solvate) [Compound 160]
185 °C	COc1cc(OC)cc(N(CCNC(C)C)c2ccc3ncc(NCC4CCNCC4)nc3c2)c1 (as salt: HCl) (hydrate or solvate) [Compound 161]
250 °C	COc1cc(OC)cc(N(CCNC(C)C)c2ccc3ncc(C(=O)N4CCN(C)CC4)nc3c2)c1 (as salt: HCl) (hydrate or solvate) [Compound 179]
236 °C	COc1cc(OC)cc(N(CCNC(C)C)c2ccc3ncc(C(=O)N4CCCCC4)nc3c2)c1 (as salt: HCl) (hydrate or solvate) [Compound 180]
255 °C	COc1cc(OC)cc(N(CCNC(C)C)c2ccc3ncc(C(=O)N4CCOCC4)nc3c2)c1 (as salt: HCl) (hydrate or solvate) [Compound 181]
186 °C	COc1cc(OC)cc(N(CCCNCC(F)(F)F)c2ccc3ncc(-c4ccn(C)c4)nc3c2)c1 (as salt: HCl) [Compound 5]
200 °C	COc1cc(OC)cc(N(CCNC(C)C)c2ccc3ncc(-c4ccn(C)c4)nc3c2)c1 (as salt: HCl) [Compound 8]
223 °C	COc1cc(OC)cc(N(CC2CC2)c2ccc3ncc(-n4ccnc4C)nc3c2)c1 (as salt: HCl) [Compound 32]
170 °C	COc1cc(OC)cc(N(Cc2cccc(CN)n2)c2ccc3ncc(-c4ccc(N)nc4)nc3c2)c1 (as salt: HCl) [Compound 51]
134 °C	COc1cc(OC)cc(N(CC2CC2)c2ccc3ncc(-c4ccn[nH]4)nc3c2)c1 (as salt: HCl) [Compound 58]
145 °C	COc1cc(OC)cc(N(CCNC(C)C)c2ccc3ncc(-c4ccn[nH]4)nc3c2)c1 (as salt: HCl) [Compound 189]
80 °C	COCC(CN(c1cc(OC)cc(OC)c1)c1ccc2ncc(-c3cccnc3)nc2c1)OC(C)=O (single isomer, unassigned) (as salt: HCl) (hydrate or solvate) [Compound 76]
222 °C	COc1cc(OC)cc(N(CCN2C(=O)c3ccccc3C2=O)c2ccc3ncc(-c4ccc(N)nc4)nc3c2)c1 [Compound 57]
